The text below walks through data of paper PMC4492579, “Potent and Selective Triazole-Based Inhibitors of the Hypoxia-Inducible Factor Prolyl-Hydroxylases with Activity in the Murine Brain” (PLoS ONE, 2015).

One assay addresses FIH (Homo sapiens, UniProt Q9NWT6). The assay can be described thus: FIH liquid chromatography-mass spectrometry assay (RapidFire).
For another assay, the target named is T1, JMJD2C (KDM4C) (Homo sapiens, UniProt Q9H3R0).
T1 sequence (Q9H3R0 1-1056): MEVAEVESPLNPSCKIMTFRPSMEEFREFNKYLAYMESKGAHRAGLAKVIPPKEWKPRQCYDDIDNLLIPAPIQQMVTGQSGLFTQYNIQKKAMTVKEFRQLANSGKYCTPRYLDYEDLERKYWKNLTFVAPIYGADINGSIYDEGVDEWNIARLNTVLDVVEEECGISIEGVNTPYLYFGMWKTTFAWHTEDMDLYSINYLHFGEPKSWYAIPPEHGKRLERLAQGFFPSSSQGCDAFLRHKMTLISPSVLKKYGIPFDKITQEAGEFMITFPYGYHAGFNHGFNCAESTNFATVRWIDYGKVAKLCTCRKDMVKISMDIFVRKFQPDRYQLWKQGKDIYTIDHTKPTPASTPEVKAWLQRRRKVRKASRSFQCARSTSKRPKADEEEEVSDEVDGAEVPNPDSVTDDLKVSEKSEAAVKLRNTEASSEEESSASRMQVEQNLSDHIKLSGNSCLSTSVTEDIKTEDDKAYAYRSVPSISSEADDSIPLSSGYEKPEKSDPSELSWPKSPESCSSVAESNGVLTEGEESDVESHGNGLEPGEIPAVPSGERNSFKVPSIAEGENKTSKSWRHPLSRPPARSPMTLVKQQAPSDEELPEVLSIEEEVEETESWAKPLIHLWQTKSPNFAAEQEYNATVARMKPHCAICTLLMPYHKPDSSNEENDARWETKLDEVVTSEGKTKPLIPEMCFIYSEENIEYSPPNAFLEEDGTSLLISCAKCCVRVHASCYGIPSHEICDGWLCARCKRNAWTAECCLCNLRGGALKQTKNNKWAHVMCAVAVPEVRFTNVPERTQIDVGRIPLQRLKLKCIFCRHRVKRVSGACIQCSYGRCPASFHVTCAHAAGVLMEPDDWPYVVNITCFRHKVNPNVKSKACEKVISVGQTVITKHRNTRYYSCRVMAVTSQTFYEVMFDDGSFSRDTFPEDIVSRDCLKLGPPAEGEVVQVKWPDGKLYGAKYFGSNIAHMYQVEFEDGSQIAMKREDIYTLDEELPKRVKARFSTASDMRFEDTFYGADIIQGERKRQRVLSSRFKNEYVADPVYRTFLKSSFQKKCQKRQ
Put plainly: KDM AlphaScreen assay, JMJD2C. (In general: Bead proximity is the source of the signal in Alpha formats.)

For the next assay, the target named is T2, JMJD1A (KDM3A) (Homo sapiens, UniProt Q9Y4C1).
T2 sequence (Q9Y4C1 1-1321): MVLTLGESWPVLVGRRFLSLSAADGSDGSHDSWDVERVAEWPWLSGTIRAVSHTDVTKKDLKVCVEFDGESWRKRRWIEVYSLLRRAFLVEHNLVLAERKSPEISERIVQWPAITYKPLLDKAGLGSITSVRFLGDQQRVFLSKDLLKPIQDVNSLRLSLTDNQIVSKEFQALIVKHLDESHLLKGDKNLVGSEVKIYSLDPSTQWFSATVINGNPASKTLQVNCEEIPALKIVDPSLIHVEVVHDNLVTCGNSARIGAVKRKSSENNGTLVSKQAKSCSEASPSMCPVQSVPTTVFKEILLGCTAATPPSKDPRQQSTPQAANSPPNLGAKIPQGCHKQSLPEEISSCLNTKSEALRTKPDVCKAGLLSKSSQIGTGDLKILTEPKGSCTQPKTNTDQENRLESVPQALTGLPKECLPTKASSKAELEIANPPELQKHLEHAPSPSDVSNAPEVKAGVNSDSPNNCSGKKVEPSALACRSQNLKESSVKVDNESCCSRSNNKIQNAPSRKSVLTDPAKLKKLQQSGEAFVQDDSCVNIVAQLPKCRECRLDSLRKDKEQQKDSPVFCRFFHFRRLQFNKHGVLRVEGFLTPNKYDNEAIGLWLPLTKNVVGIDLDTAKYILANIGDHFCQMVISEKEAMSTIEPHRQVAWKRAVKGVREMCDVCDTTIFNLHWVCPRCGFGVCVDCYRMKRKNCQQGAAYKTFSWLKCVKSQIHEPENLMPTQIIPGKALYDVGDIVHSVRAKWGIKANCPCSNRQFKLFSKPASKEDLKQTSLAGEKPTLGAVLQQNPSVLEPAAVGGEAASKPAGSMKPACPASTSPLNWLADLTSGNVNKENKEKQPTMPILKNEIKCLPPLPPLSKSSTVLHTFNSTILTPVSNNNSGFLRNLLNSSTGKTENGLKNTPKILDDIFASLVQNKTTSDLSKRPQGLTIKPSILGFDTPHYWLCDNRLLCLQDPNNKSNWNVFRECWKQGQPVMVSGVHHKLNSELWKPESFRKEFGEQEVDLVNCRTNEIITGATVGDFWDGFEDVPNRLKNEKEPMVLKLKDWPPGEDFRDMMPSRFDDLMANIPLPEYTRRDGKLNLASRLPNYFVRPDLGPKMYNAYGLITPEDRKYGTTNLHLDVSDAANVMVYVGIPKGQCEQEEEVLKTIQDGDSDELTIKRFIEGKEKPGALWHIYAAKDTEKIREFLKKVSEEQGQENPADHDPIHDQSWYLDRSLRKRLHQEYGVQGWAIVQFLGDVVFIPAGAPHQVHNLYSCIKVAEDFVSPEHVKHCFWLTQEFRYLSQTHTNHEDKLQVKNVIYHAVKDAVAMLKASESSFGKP
Put plainly: KDM AlphaScreen assay, JMJD1A.

Each structure is given as a SMILES string. Structures can show the parent of a compound that is named as a salt.

FIH, sequence (Q9NWT6 whole entry): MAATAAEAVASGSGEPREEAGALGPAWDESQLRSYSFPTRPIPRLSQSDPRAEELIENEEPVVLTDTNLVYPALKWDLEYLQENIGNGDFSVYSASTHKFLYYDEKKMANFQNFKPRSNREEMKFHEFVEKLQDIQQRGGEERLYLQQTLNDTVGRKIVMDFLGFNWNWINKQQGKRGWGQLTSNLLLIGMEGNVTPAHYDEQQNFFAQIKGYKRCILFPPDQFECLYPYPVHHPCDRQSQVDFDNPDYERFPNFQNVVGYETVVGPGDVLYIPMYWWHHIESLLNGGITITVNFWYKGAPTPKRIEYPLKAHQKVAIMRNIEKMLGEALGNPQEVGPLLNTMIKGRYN
Experimental for FIH: After 15 minutes, the enzyme reaction was stopped by the addition of 4 ml 10% formic acid and the reaction mixture transferred to a RapidFire RF360 high throughput sampling robot. Samples were aspirated under vacuum onto a C4 Solid Phase Extraction (SPE) cartridge. […] Ion chromatogram data was extracted for the non-hydroxylated peptide substrate and the hydroxylated peptide product and peak area data for extracted ion chromatograms were integrated using RapidFire Integrator software. Percentage conversion of substrate to product was calculated in Microsoft Excel and IC50 values were calculated using Graphpad Prism 5.
Experimental for JMJD1A (KDM3A): Inhibition assays for PHD2 (AlphaScreen) [9], the KDMs (AlphaScreen) [17], BBOX [18] and FTO [19] were carried out as previously described. […] IC50 values were calculated using nonlinear regression with normalized dose-response fit using GraphPad Prism 5.
Experimental for JMJD2C (KDM4C): Inhibition assays for PHD2 (AlphaScreen) [9], the KDMs (AlphaScreen) [17], BBOX [18] and FTO [19] were carried out as previously described. N-Terminally biotinylated 19-residue human HIF1α CODD peptide ([sequence]) used in the PHD2 inhibition assays was from GL Biochem (Shanghai). IC50 values were calculated using nonlinear regression with normalized dose-response fit using GraphPad Prism 5.

As to `O=C(O)CNC(=O)c1c(O)c2ccccc2n(Cc2ccccc2)c1=O` [IOX2], on FIH, the half-maximal inhibitory concentration (IC50) was over 100 µM.

As to `O=C(O)c1ccc(-n2[nH]cc(-n3ccnn3)c2=O)nc1` [compound 1, 6-(5-oxo-4-(1H-1,2,3-triazol-1-yl)-2,5-dihydro-1H-pyrazol-1-yl)pyridine-3-carbocylic acid hydrochloride], the IC50 at JMJD2C (KDM4C) is over 20 µM.

In the case of `CC(C)(C)OC(=O)c1ccc(-n2[nH]cc(-n3ccnn3)c2=O)nc1` [IOX4, t-Butyl 6-(5-oxo-4-(1H-1,2,3-triazol-1-yl)-2,5-dihydro-1H-pyrazol-1-yl)nicotinate], the IC50 against JMJD2C (KDM4C) and at JMJD1A (KDM3A) was over 20 µM in each case.

For orientation: IC50 means the midpoint of a concentration-inhibition curve. The low end stands for higher potency, the high end for lower potency.
